Test results: patent US20230181746A1, “BENZOYLHYDRAZIDE-DERIVED HDAC DEGRADERS AS THERAPEUTICS FOR TREATING CANCER AND OTHER HUMAN DISEASES” (University of Florida Research Foundation, Inc., priority 2020, published 2023)

What was measured:
HDAC3 = HDAC3 (Homo sapiens, UniProt O15379); experiment: HDAC3 degradation in breast cancer cell lines, Western blot; type: cell-based; set-up: endogenous in cells; host or cells: MDA-MB-468, T47D, MCF7; details: for DC50: T47D cells, read-out: DC50, HDAC3 degradation potency
Source text: Data are presented as representative figures of two independent experiments.
Cells were lysed for WB with antibodies against the indicated proteins. Antibodies against acetylated histones at specific sites (H3K27 and H4K5) and acetyl-lysine were used to assess levels of histone acetylation.
Cells were lysed for WB. […] The indicated BC cell lines were exposed to DMSO, XZ9002, or XZ9002-NC at the indicated concentrations. Colonies were fixed and stained.
Cell lines were obtained from ATCC and subsequently authenticated. Cells were cultured with DMEM supplemented with 10% bovine calf serum, penicillin to 10 units/mL, and streptomycin to 10 μg/mL. For viability assays, 5,000 cells/well were seeded in 96-well plates. […] For colony formation assay, cells (˜1,000 cells/well) were seeded in a 24-well plate in quadruplicates. […] Medium was replaced with freshly prepared medium containing DMSO, XZ9002 or XZ9002-NC every five days until visible colonies appeared, typically in 15 to 20 days after initial cell seeding. Cells were fixed with 4% paraformaldehyde for 15 min and stained with 2% methylene blue in 20% ethanol for 30 min to 1 h. The cells were washed twice with distilled water and dried in air. For western blotting, cell cultures were exposed to compounds as indicated in relevant figures. Medium was removed from culture plate, and 1 x passive lysis buffer was then added, the plates were frozen at −80° C. overnight and thawed at room temperature. The total cell lysates were mixed with a one fifth volume of 6x SDS sample buffer, heated at 95° C. for 5 min and cooled on ice. The lysates were cleared by centrifugation and then subjected to SDS-PAGE and western blotting essentially as described.

[1] = biological target: T1, HDAC3 (in complex with the deacetylase activation domain of the human NCOR2 (amino acids 395-498)) (Homo sapiens, UniProt O15379); experiment: In vitro HDAC activity assay (HDAC-Glo I/II), HDAC3; type: biochemical; details: HDAC-Glo I/II; average of three independent assays ± standard deviation
T1 construct: purchased BPS Bioscience 50003
Description: (§1) Purified HDAC1, HDAC2, and HDAC3 (in complex with the deacetylase activation domain of the human NCOR2 (amino acids 395-498)) were obtained from Enzo Life Sciences (HDAC1, catalog # BML-SE456-0050) and BPS Bioscience (HDAC2, catalog #50002 and HDAC3, catalog #50003), respectively. The enzyme activities were tested using the HDAC-Glo I/II reagents (Promega) according to a protocol provided by the manufacturer.

HDAC2 = HDAC2 (Homo sapiens, UniProt Q92769); experiment: In vitro HDAC activity assay (HDAC-Glo I/II), HDAC2; type: biochemical; set-up: purchased BPS Bioscience 50002; details: average of three independent assays ± standard deviation
Description: as §1

HDAC1 = HDAC1 (Homo sapiens, UniProt Q13547); experiment: In vitro HDAC activity assay (HDAC-Glo I/II), HDAC1; type: biochemical; set-up: purchased Enzo Life Sciences BML-SE456-0050; details: average of three independent assays ± standard deviation
Description: as §1

Chain of HDAC2 (Q92769 whole entry): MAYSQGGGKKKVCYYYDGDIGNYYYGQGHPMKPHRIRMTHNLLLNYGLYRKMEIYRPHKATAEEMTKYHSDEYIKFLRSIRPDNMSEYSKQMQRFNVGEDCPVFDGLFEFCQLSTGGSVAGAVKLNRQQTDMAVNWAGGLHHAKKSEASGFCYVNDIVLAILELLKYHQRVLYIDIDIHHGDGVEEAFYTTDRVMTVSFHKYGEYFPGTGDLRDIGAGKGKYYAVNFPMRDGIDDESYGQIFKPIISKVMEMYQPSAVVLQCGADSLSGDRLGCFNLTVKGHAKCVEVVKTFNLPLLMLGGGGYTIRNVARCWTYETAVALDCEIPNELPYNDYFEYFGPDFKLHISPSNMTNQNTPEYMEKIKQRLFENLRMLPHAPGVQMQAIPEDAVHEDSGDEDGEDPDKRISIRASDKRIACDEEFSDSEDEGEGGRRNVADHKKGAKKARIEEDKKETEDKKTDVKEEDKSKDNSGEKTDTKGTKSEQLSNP
Chain of HDAC1 (Q13547 whole entry): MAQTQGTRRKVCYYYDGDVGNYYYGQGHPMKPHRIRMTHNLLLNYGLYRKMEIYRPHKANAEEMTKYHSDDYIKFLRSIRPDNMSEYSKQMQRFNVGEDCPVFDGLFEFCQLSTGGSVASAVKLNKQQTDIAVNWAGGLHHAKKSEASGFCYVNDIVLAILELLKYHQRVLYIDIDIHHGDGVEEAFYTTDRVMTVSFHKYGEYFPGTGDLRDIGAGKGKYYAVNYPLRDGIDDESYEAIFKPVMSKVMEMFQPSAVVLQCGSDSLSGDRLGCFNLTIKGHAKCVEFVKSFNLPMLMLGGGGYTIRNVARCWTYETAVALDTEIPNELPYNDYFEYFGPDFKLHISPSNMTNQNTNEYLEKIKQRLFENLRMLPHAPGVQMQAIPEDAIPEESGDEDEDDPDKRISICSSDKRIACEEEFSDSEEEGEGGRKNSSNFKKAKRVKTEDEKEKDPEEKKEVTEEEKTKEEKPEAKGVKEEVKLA
Chain of HDAC3 (O15379 whole entry): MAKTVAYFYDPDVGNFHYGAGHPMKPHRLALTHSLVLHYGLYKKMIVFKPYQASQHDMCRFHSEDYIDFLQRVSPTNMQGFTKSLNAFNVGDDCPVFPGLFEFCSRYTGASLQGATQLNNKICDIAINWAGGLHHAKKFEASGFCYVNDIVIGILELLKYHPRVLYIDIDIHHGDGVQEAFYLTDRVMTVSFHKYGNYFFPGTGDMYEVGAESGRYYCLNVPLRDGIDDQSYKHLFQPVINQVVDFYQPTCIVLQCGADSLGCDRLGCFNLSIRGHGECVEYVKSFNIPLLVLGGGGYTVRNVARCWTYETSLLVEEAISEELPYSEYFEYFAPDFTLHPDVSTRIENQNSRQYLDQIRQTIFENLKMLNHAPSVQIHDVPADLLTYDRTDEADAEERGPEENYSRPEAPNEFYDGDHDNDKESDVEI
Chain of HDAC3 (Q9Y618 395-498 partner limits assumed): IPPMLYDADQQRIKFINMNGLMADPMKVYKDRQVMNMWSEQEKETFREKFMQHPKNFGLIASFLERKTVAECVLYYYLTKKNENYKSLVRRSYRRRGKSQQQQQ
T1 sequence (O15379 whole entry, the tested form may be a part): as the sequence (O15379 whole entry) above
T1 sequence (Q9Y618 395-498 partner limits assumed): as the sequence (Q9Y618 395-498 partner limits assumed) above

Row | Compound | DC50 (HDAC3) [nM] | IC50 [1] [nM] | IC50 (HDAC2) [nM] | IC50 (HDAC1) [nM] | other results
1 | CCCNNC(=O)c1ccc(N2CCN(C(=O)CCCCCCCCC(=O)N[C@H](C(=O)N3C[C@H](O)C[C@H]3C(=O)N[C@@H](C)c3ccc(-c4scnc4C)cc3)C(C)(C)C)CC2)cc1 [Compound 27c, (2S,4R)-1-((S)-3,3-dimethyl-2-(10-oxo-10-(4-(4-(2-propylhydrazine-1-carbonyl)phenyl)piperazin-1-yl)decanamido)butanoyl)-4-hydroxy-N—((S)-1-(4-(4-methylthiazol-5-yl)phenyl)ethyl)pyrrolidine-2-carboxamide] | < 100 | – | – | – | –
2 | CCCNNC(=O)c1ccc(-c2ccc(NC(=O)COCCOCCOCCOCCNc3cccc4c3C(=O)N(C3CCC(=O)NC3=O)C4=O)cc2)cc1 (stereo not drawn) [Compound 7c, 14-((2-(2,6-dioxopiperidin-3-yl)-1,3-dioxoisoindolin-4-yl)amino)-N-(4′-(2-propylhydrazine-1-carbonyl)-[1,1′-biphenyl]-4-yl)-3,6,9,12-tetraoxatetradecanamide] | – | 72 ± 15 | 450 ± 70 | 125 ± 35 | concentration at which HDAC3 is degraded (HDAC3; PROTACs derived from CRBN, breast cancer cell lines): 1.0 µM
3 | CCCNNC(=O)c1ccc(-c2ccc(NC(=O)COCCOCCNc3cccc4c3C(=O)N(C3CCC(=O)NC3=O)C4=O)cc2)cc1 (stereo not drawn) [Compound 7a] | – | 43 ± 18 | 410 ± 14 | 82 ± 25 | –
4 | CCCNNC(=O)c1ccc(-c2ccc(NC(=O)CCCCCCC(=O)N[C@H](C(=O)N3C[C@@H](O)C[C@@H]3C(=O)N[C@@H](C)c3ccc(-c4scnc4C)cc3)C(C)(C)C)cc2)cc1 [XZ9002-NC, N^1—((S)-1-((2R,4S)-4-Hydroxy-2-(((S)-1-(4-(4-methylthiazol-5-yl)phenyl)ethyl)carbamoyl)pyrrolidin-1-yl)-3,3-dimethyl-1-oxobutan-2-yl)-N^5-(4′-(2-propylhydrazine-1-carbonyl)-[1,1′-biphenyl]-4-yl)octanediamide] | – | – | – | – | HDAC3 degradation (in words) (HDAC3; MDA-MB-468 cells (FIG. 3B)): did not induce HDAC3 degradation
5 | CCCNNC(=O)c1ccc(-c2ccc(NC(=O)CCCCCCCCC(=O)N[C@H](C(=O)N3C[C@H](O)C[C@H]3C(=O)N[C@@H](C)c3ccc(-c4scnc4C)cc3)C(C)(C)C)cc2)cc1 [Compound 8d, N^1—((S)-1-((2S,4R)-4-Hydroxy-2-(((S)-1-(4-(4-methylthiazol-5-yl)phenyl)ethyl)carbamoyl)pyrrolidin-1-yl)-3,3-dimethyl-1-oxobutan-2-yl)-N^10-(4′-(2-propylhydrazine-1-carbonyl)-[1,1′-biphenyl]-4-yl)decanediamide] | – | 550 ± 70 | 1420 ± 250 | 1500 ± 140 | –
6 | CCCNNC(=O)c1ccc(-c2ccc(NC(=O)CCC(=O)N[C@H](C(=O)N3C[C@H](O)C[C@H]3C(=O)N[C@@H](C)c3ccc(-c4scnc4C)cc3)C(C)(C)C)cc2)cc1 [Compound 8a, N^1—((S)-1-((2S,4R)-4-hydroxy-2-(((S)-1-(4-(4-methylthiazol-5-yl)phenyl)ethyl)carbamoyl)pyrrolidine-1-yl)-3,3-dimethyl-1-oxobutan-2-yl)-N^4-(4′-(2-propylhydrazine-1-carbonyl)-[1,1′-biphenyl]-4-yl)succinimide] | – | 140 ± 40 | 1400 ± 140 | 300 ± 70 | –
7 | CCCNNC(=O)c1ccc(-c2ccc(NC(=O)COCCOCCOCCNc3cccc4c3C(=O)N(C3CCC(=O)NC3=O)C4=O)cc2)cc1 (stereo not drawn) [Compound 7b, 2-(2-(2-(2-((2-(2,6-dioxopiperidin-3-yl)-1,3-dioxoisoindolin-4-yl)amino)ethoxy)ethoxy)ethoxy)-N-(4′-(20propylhydrazine-1-carbonyl)[1,1′-biphenyl]-4-yl)acetamide] | – | 38 ± 23 | 400 ± 30 | 90 ± 14 | –

Second part, led by results:

Row | DC50 (HDAC3) [nM] | IC50 [1] [nM] | IC50 (HDAC2) [nM] | IC50 (HDAC1) [nM] | Compound | other results
8 | < 100 | – | – | – | CCCNNC(=O)c1ccc(N2CCN(CCCCCCCCC(=O)N[C@H](C(=O)N3C[C@H](O)C[C@H]3C(=O)N[C@@H](C)c3ccc(-c4scnc4C)cc3)C(C)(C)C)CC2)cc1 [Compound 28d, (2S,4R)-1-((S)-3,3-dimethyl-2-(9-(4-(4-(2-propylhydrazine-1-carbonyl)phenyl)piperazin-1-yl)nonanamido)butanoyl)-4-hydroxy-N—((S)-1-(4-(4-methylthiazol-5-yl)phenyl)ethyl)pyrrolidine-2-carboxamide] | –
9 | < 1000 | – | – | – | CCCNNC(=O)c1ccc(N2CCN(CCCCCCCCCC(=O)N[C@H](C(=O)N3C[C@H](O)C[C@H]3C(=O)N[C@@H](C)c3ccc(-c4scnc4C)cc3)C(C)(C)C)CC2)cc1 [Compound 28e, (2S,4R)-1-((S)-3,3-dimethyl-2-(10-(4-(4-(2-propylhydrazine-1-carbonyl)phenyl)piperazin-1-yl)decanamido)butanoyl)-4-hydroxy-N—((S)-1-(4-(4-methylthiazol-5-yl)phenyl)ethyl)pyrrolidine-2-carboxamide] | –
10 | < 100 | – | – | – | CCCNNC(=O)c1ccc(N2CCN(C(=O)CCCCCCC(=O)N[C@H](C(=O)N3C[C@H](O)C[C@H]3C(=O)N[C@@H](C)c3ccc(-c4scnc4C)cc3)C(C)(C)C)CC2)cc1 [Compound 27b, (2S,4R)-1-((S)-3,3-dimethyl-2-(8-oxo-8-(4-(4-(2-propylhydrazine-1-carbonyl)phenyl)piperazin-1-yl)octanamido)butanoyl)-4-hydroxy-N—((S)-1-(4-(4-methylthiazol-5-yl)phenyl)ethyl)pyrrolidine-2-carboxamide] | –
11 | < 1000 | – | – | – | CCCNNC(=O)c1ccc(N2CCN(C(=O)CCCCC(=O)N[C@H](C(=O)N3C[C@H](O)C[C@H]3C(=O)N[C@@H](C)c3ccc(-c4scnc4C)cc3)C(C)(C)C)CC2)cc1 [Compound 27a, (2S,4R)-1-((S)-3,3-dimethyl-2-(6-oxo-6-(4-(4-(2-propylhydrazine-1-carbonyl)phenyl)piperazin-1-yl)hexanamido)butanoyl)-4-hydroxy-N—((S)-1-(4-(4-methylthiazol-5-yl)phenyl)ethyl)pyrrolidine-2-carboxamide] | –
12 | < 100 | – | – | – | CCCNNC(=O)c1ccc(N2CCN(CCCCCCC(=O)N[C@H](C(=O)N3C[C@H](O)C[C@H]3C(=O)N[C@@H](C)c3ccc(-c4scnc4C)cc3)C(C)(C)C)CC2)cc1 [Compound 28b, (2S,4R)-1-((S)-3,3-dimethyl-2-(7-(4-(4-(2-propylhydrazine-1-carbonyl)phenyl)piperazin-1-yl)heptanamido)butanoyl)-4-hydroxy-N—((S)-1-(4-(4-methylthiazol-5-yl)phenyl)ethyl)pyrrolidine-2-carboxamide] | –
13 | < 100 | – | – | – | CCCNNC(=O)c1ccc(N2CCN(CCCCCC(=O)N[C@H](C(=O)N3C[C@H](O)C[C@H]3C(=O)N[C@@H](C)c3ccc(-c4scnc4C)cc3)C(C)(C)C)CC2)cc1 [Compound 28a, (2S,4R)-1-((S)-3,3-dimethyl-2-(6-(4-(4-(2-propylhydrazine-1-carbonyl)phenyl)piperazin-1-yl)hexanamido)butanoyl)-4-hydroxy-N—((S)-1-(4-(4-methylthiazol-5-yl)phenyl)ethyl)pyrrolidine-2-carboxamide] | –
